Reference: ChEMBL document CHEMBL1201862, “PubChem BioAssay data set” (2004)
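Compound exposure: 48 hours, 5 concentrations, 96-well plates. Abbreviation: GI50, concentration required for 50% inhibition of growth.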 Activity calls are given as the source filed them. Cut-off read from the data, not from the text of the source: active = GI50 up to about 1.1 µM and inactive = higher.

Tests used:
Test in all cases: NCI anticancer screen, dose series, 48 h
CAKI-1 = tested on: CAKI-1
SF-268 = tested on: SF-268
HOP-92 = tested on: HOP-92
HCC 2998 = tested on: HCC 2998
OVCAR-3 = tested on: OVCAR-3
COLO 205 = tested on: COLO 205
U-251 = tested on: U-251
UO-31 = tested on: UO-31
CCRF-CEM = tested on: CCRF-CEM
HOP-62 = tested on: HOP-62
Malme-3M = tested on: Malme-3M
SF-539 = tested on: SF-539
NCI-H460 = tested on: NCI-H460
RPMI-8226 = tested on: RPMI-8226
UACC-62 = tested on: UACC-62
OVCAR-4 = tested on: OVCAR-4
PC-3 = tested on: PC-3
MDA-MB-435 = tested on: MDA-MB-435
DU-145 = tested on: DU-145

Structure (SMILES)	GI50 (CAKI-1)	GI50 (SF-268)	GI50 (HOP-92)	GI50 (HCC 2998)	GI50 (OVCAR-3)	GI50 (COLO 205)	GI50 (U-251)	GI50 (UO-31)	GI50 (CCRF-CEM)	GI50 (HOP-62)	GI50 (Malme-3M)	GI50 (SF-539)	GI50 (NCI-H460)	GI50 (RPMI-8226)	GI50 (UACC-62)	GI50 (OVCAR-4)	GI50 (PC-3)	GI50 (MDA-MB-435)	GI50 (DU-145)
CC1C(=O)OC2CC[N+]3(CC(=O)c4ccc(Br)cc4)CC=C(COC(=O)C(C)(O)C1(C)O)C23 (configuration not stated)	> 375 µM (inactive)	> 375 µM (inactive)	> 299 µM (inactive)	> 375 µM (inactive)	> 375 µM (inactive)	> 375 µM (inactive)	> 375 µM (inactive)	> 375 µM (inactive)	> 375 µM (inactive)	> 375 µM (inactive)	> 375 µM (inactive)	> 375 µM (inactive)	> 375 µM (inactive)	> 375 µM (inactive)	> 375 µM (inactive)	> 375 µM (inactive)			
CCC(O)(c1ccc(OC)cc1)C(c1ccc(OCc2ccccc2)cc1)c1ccc(OCc2ccccc2)cc1 (configuration not stated)	> 100 µM (inactive)	> 100 µM (inactive)	> 100 µM (inactive)	> 100 µM (inactive)	> 100 µM (inactive)	> 100 µM (inactive)	> 100 µM (inactive)	> 100 µM (inactive)	> 100 µM (inactive)	> 100 µM (inactive)	> 100 µM (inactive)	> 100 µM (inactive)	> 100 µM (inactive)	> 100 µM (inactive)	> 100 µM (inactive)	> 100 µM (inactive)			
CC1=Nc2c(ccc3c2C(=O)c2ccccc2C3=O)NC(c2ccncc2)C1 (configuration not stated)	7.98 µM (inactive)	> 10 µM (inactive)	> 10 µM (inactive)	> 10 µM (inactive)	> 10 µM (inactive)	> 10 µM (inactive)	> 10 µM (inactive)	4.72 µM (inactive)	0.515 µM (active)	35.1 µM (inactive)	> 10 µM (inactive)	> 10 µM (inactive)	> 10 µM (inactive)	4.84 µM (inactive)	62.4 µM (inactive)	> 10 µM (inactive)			
O=C(N/C(=C\c1cccc([N+](=O)[O-])c1)c1nc2c(O)nc(S)nc2[nH]1)c1ccccc1	> 100 µM (inactive)	48.2 µM (inactive)	> 100 µM (inactive)	> 100 µM (inactive)	> 100 µM (inactive)	> 100 µM (inactive)	> 100 µM (inactive)	24.5 µM (inactive)	> 100 µM (inactive)	> 100 µM (inactive)	> 100 µM (inactive)	> 100 µM (inactive)	> 100 µM (inactive)	97.1 µM (inactive)	> 100 µM (inactive)	> 100 µM (inactive)			
Cc1ccccc1NC(=O)C(=O)CC(=O)c1sc(-n2nc(-c3ccccc3)cc2-c2ccccc2)nc1C	> 100 µM (inactive)	> 100 µM (inactive)	> 100 µM (inactive)	> 100 µM (inactive)	> 100 µM (inactive)	> 100 µM (inactive)	> 100 µM (inactive)	> 100 µM (inactive)	> 100 µM (inactive)	> 100 µM (inactive)	> 100 µM (inactive)	> 100 µM (inactive)	> 100 µM (inactive)	> 100 µM (inactive)	> 100 µM (inactive)	> 100 µM (inactive)			
Cn1nc(N)nc1N=S(C)(C)=N	> 100 µM (inactive)	> 100 µM (inactive)	> 100 µM (inactive)	> 100 µM (inactive)	> 100 µM (inactive)	> 100 µM (inactive)	> 100 µM (inactive)	88.9 µM (inactive)	> 100 µM (inactive)	> 100 µM (inactive)	> 100 µM (inactive)	> 100 µM (inactive)	> 100 µM (inactive)	> 100 µM (inactive)	> 100 µM (inactive)	> 100 µM (inactive)			
C=CCC1(CN(C)C)CC/C(=C\c2ccc3c(c2)OCO3)C1=O (configuration not stated)	68.5 µM (inactive)	91 µM (inactive)	89.9 µM (inactive)	37.3 µM (inactive)	65.3 µM (inactive)	23.7 µM (inactive)	52.1 µM (inactive)	45 µM (inactive)	29.2 µM (inactive)	> 100 µM (inactive)	> 100 µM (inactive)	88.9 µM (inactive)	50.4 µM (inactive)	24.3 µM (inactive)	68.4 µM (inactive)	67.5 µM (inactive)			
CCCOc1nc(N)c2cnn(C3CCCCO3)c2n1 (configuration not stated)	> 100 µM (inactive)	> 100 µM (inactive)	> 100 µM (inactive)	> 100 µM (inactive)	> 100 µM (inactive)	> 100 µM (inactive)	> 100 µM (inactive)	> 100 µM (inactive)	> 100 µM (inactive)	> 100 µM (inactive)	> 100 µM (inactive)	> 100 µM (inactive)	> 100 µM (inactive)	> 100 µM (inactive)	> 100 µM (inactive)	> 100 µM (inactive)			
CC(C)(C)[Si](C)(C)O/N=C\c1cccc(O[Si](C)(C)C(C)(C)C)c1	24.8 µM (inactive)	18.3 µM (inactive)	15.5 µM (inactive)	18.3 µM (inactive)	16.2 µM (inactive)	17.8 µM (inactive)	17.5 µM (inactive)	15.6 µM (inactive)	19.3 µM (inactive)	22.8 µM (inactive)	42.4 µM (inactive)	21.9 µM (inactive)	17.7 µM (inactive)	17 µM (inactive)	16.7 µM (inactive)	16.1 µM (inactive)			
OCC(O)COc1c(Cl)cc(Cl)cc1Cl (configuration not stated)	> 100 µM (inactive)	> 100 µM (inactive)	> 100 µM (inactive)	> 100 µM (inactive)	> 100 µM (inactive)	> 68.7 µM (inactive)	> 100 µM (inactive)	> 100 µM (inactive)	> 41.8 µM (inactive)	> 100 µM (inactive)	> 100 µM (inactive)	> 100 µM (inactive)	> 100 µM (inactive)	> 44.9 µM (inactive)	> 100 µM (inactive)	> 100 µM (inactive)			
CCCCN/C(=N\C#N)N(Cc1ccccc1)Cc1ccccc1	29.1 µM (inactive)	38.1 µM (inactive)	17.6 µM (inactive)	11.9 µM (inactive)	23.8 µM (inactive)	18.4 µM (inactive)	28.5 µM (inactive)	20.7 µM (inactive)	16.7 µM (inactive)	26.6 µM (inactive)	37.2 µM (inactive)	22.2 µM (inactive)	58.5 µM (inactive)	16.6 µM (inactive)	15.4 µM (inactive)	27.3 µM (inactive)			
O=c1[nH]c(=O)n(CCOc2ccc(Cl)cc2)cc1Nc1ccccc1	> 100 µM (inactive)	39.9 µM (inactive)	> 100 µM (inactive)	> 100 µM (inactive)	85.3 µM (inactive)	> 100 µM (inactive)	> 100 µM (inactive)	58.5 µM (inactive)	> 100 µM (inactive)	> 100 µM (inactive)			> 100 µM (inactive)	> 100 µM (inactive)	> 100 µM (inactive)	49 µM (inactive)	> 100 µM (inactive)	> 100 µM (inactive)	> 100 µM (inactive)
COc1cc2c[n+](C)c3c4cc(OC)c(OC(C)C)cc4ccc3c2cc1OC	> 100 µM (inactive)	47 µM (inactive)	73.6 µM (inactive)	44.2 µM (inactive)	10.5 µM (inactive)	10.5 µM (inactive)	29.6 µM (inactive)	> 100 µM (inactive)	56.2 µM (inactive)	> 100 µM (inactive)	29.4 µM (inactive)	> 100 µM (inactive)	75.3 µM (inactive)	36.2 µM (inactive)	37.3 µM (inactive)	62.7 µM (inactive)			
CC1(C)COC(c2ccc(C(F)(F)F)cc2C(O)c2ccc3ccccc3c2)=N1 (configuration not stated)	94.6 µM (inactive)	82 µM (inactive)	41.4 µM (inactive)	> 10 µM (inactive)	> 10 µM (inactive)	> 10 µM (inactive)	> 10 µM (inactive)	> 10 µM (inactive)	> 10 µM (inactive)	> 10 µM (inactive)	> 10 µM (inactive)	64.4 µM (inactive)	> 10 µM (inactive)	> 100 µM (inactive)	> 10 µM (inactive)	> 10 µM (inactive)			
CCOC(=O)/C(=C\NC#N)c1nc2ccccc2[nH]1	> 100 µM (inactive)	72.9 µM (inactive)	> 100 µM (inactive)	> 100 µM (inactive)	> 100 µM (inactive)	> 100 µM (inactive)		1.28 µM (inactive)		> 100 µM (inactive)	> 100 µM (inactive)	> 100 µM (inactive)	60.5 µM (inactive)	78.5 µM (inactive)	85.1 µM (inactive)	> 100 µM (inactive)		> 100 µM (inactive)	> 100 µM (inactive)
CN(C)CCCOc1ccc(/C=C2/CCC/C(=C/c3ccc(OCCCN(C)C)cc3)C2=O)cc1		2 µM (inactive)	1.16 µM (inactive)	1.7 µM (inactive)	2.26 µM (inactive)	1.73 µM (inactive)	0.918 µM (active)	1.79 µM (inactive)	0.824 µM (active)	1.82 µM (inactive)	1.78 µM (inactive)	1.6 µM (inactive)	2.07 µM (inactive)	1.26 µM (inactive)	1.91 µM (inactive)	2.31 µM (inactive)			
COc1ccc(/C=C2\CCC(CCN(C)C)(C3=CCCC3)C2=O)cc1 (configuration not stated)	10.7 µM (inactive)	18.2 µM (inactive)	20.7 µM (inactive)	18.6 µM (inactive)	19.1 µM (inactive)	12.8 µM (inactive)	16.5 µM (inactive)	14.8 µM (inactive)	17.1 µM (inactive)	18 µM (inactive)	16 µM (inactive)	16.1 µM (inactive)	20.1 µM (inactive)	20.8 µM (inactive)	16.4 µM (inactive)	19.7 µM (inactive)			
